“Also recorded” adds a separate entry of the source.
Assay: Ocular versus oral delivery of valdecoxib nanoparticle suspensions; drug concentration in eye tissues and plasma by LC-MS
Type: in vivo, New Zealand white rabbits
Details: rabbit
Method: Oral and ophthalmic suspensions of valdecoxib nanoparticles were prepared. […] The two carrageenan excipients are both ι-carrageenans with slightly different chemical and physical properties.
Eighteen male New Zealand white rabbits weighing from 1.8-2.5 kg were provided as test animals and divided into three lots containing six rabbits each.
Selected eye tissues, aqueous humor, bulbar conjunctiva, cornea, eyelids, vitreous humor and sclera, were excised at the time of sacrifice, weighed directly into tared vials, solubilized and/or diluted as necessary, and analyzed by HPLC-MS. Just prior to sacrifice, 0.5 mL of a blood sample was collected from the ear central artery via a syringe, placed into a K2-EDTA vacutainer, mixed gently and stored on ice up to one hour prior to centrifuging to separate the plasma. The plasma was stored at −10° C. or colder until analysis.

[1] = four hours after administration, FIGS. 2 and 3

Compound: Cc1onc(-c2ccccc2)c1-c1ccc(S(N)(=O)=O)cc1 [valdecoxib, 4-[5-methyl-3-phenylisoxazol-4-yl]-benzenesulfonamide]
- delivery of the drug to the eye (conjunctiva, cornea, aqueous humor concentration), ocular versus oral administration [1]: much more effective in delivering the drug to the eye than oral administration
- systemic (plasma) concentration of the drug, ocular versus oral administration [1]: avoids the high systemic (plasma) concentration
- concentration of the drug in the conjunctiva versus time, ocular versus oral delivery (single ocular dose 25 μL ophthalmic suspension per eye (about 0.1 mg) vs oral 0.5 mg/kg, 0.5, 2 and 4 hours, FIG. 1, 0.5 mg/kg): much higher initial concentration; also recorded: maintained this higher concentration over time
